# Assay results from patent US20260152777A1, “METHOD FOR PRODUCING EPIGALLOCATECHIN GALLATE MONOGLUCOSIDE” (GIVAUDAN SA, priority 2022, published 2026).
# Experiments:
# [1] = tested on: female volunteers with a dark skin type (phototype IV or more) and dull skin; experiment: Clinical evaluation on African skin: skin color by Chromameter L* parameter; format: in vivo, human; settings: cream with 0.01% of EGCG aglycone, full face twice daily, dark skin type
# Experimental: The clinical study was carried out on 85 female volunteers aged from 19 to 47 years, which were divided in three groups: active, placebo and aglycone. The study was performed in South Africa on female volunteers with a dark skin type (phototype IV or more) and dull skin. All participants provided signed informed consent at the beginning of the study. The study was conducted according to the guidelines of the Declaration of Helsinki. […] Skin color evolution was measured after 14, 28 and 56 days using L* parameter measurement by Chromameter®.
# The skin color was evaluated by means of a Chromameter CR400, which measures skin color, and the parameter L* (lightness) was recorded. The greater the value, the lighter the skin color. Depending on the test type, at least three or at least 15 readings were taken at each test sub-site for each time interval to serve as the specific pigmentation sport color measurement component of the study. Skin color was analyzed at D0, D14, D28 and D56.
# For all studies in vivo, a Shapiro Wilk test was used to verify whether the raw data followed the Gaussian Law. In case of Normally-distributed data, the mean values were compared using either an unpaired or paired t student test. In case of non-Normally-distributed data, a Wilcoxon (paired) and Kruskal-Wallis test followed by a Mann-Whitney U (unpaired) test were used for paired data and unpaired data, respectively.
# [2] = tested on: spontaneous formation of Advanced Glycation End-products (AGEs); experiment: Anti-glycation in tubo assay (BSA + ribose, fluorescence); format: biochemical; settings: 17 h at 37° C.; for IC50: BSA + ribose, read-out: IC50 in well (concentration which inhibits AGEs formation by half)
# Experimental: The anti-glycation effect was evaluated using an in tubo assay to measure the spontaneous formation of Advanced Glycation End-products (AGEs). This assay was conducted on a 96-wells microplate. […] The extracts were diluted in sodium phosphate buffer (0.1 M, pH 7.4). Several dilutions were tested. Each diluted extract was run in triplicate. A standard range of aminoguanidine was used as inhibitor reference (positive control). A mixture of the sodium phosphate buffer and BSA was used to validate the experiment and a mixture of sodium phosphate buffer, BSA and ribose was used as the positive control. Two blanks were carried out for the extract: • with phosphate buffer, BSA and extract • with phosphate buffer, ribose and extract The microplate was agitated and incubated for 17 h at 37° C. The fluorescence reading was performed with ? excitation 340 nm and ? emission 420 nm. The anti-glycation activity of the extract was calculated as follows: [formula] FI: Fluorescence of tested extract; blank extract (ribose or BSA); positive control; negative control. Based on the above measurements and calculation, the IC50, i.e. the concentration of the extract which inhibits AGEs formation by half, was calculated.
# [3] = Skin penetration by Raman spectroscopy (ex vivo); format: in vitro ADME, human; settings: human
# Experimental: At the end of the incubation period, the skin explants were frozen in Optimal Cutting Temperature (OCT; VWR) at −80° C. and then cut longitudinally using a cryotome with a thickness of 20 μm. For each explant, 3 tissue sections were selected and deposited on a CaF2 support for Raman imaging analysis. The processing of corrected data maps was performed by using a software based on least squares fitting method that operates in the Matlab environment. This method involves mathematical modeling of reference spectra in the overall spectral image to determine the contribution and distribution of these spectra within the image. The reference spectra were the modelled spectra of the following products: Aglycone, glucoside mixture, 4′-O-α-monoglucoside and untreated skin control.
# human skin explants = experiment: Whitening activity (ex vivo), Fontana-Masson staining for melanin quantification; format: cell-based; settings: at 2%, topical, 7 days
# Experimental: Fresh human skin explants were obtained from skin phototype III and VI donors, aged of 46±25 years. […] Kojic acid (Sigma-Aldrich) at 2% was topically applied and incubated under the same conditions, serving as positive control. The untreated condition was treated with the vehicle (distilled water). The medium was renewed every other day. After the end of culture, the skin explants were sampled and put in formalin before being dehydrated and embedded in paraffin for Fontana-Masson staining.
# Skin explants fixed in formalin were dehydrated and embedded in paraffin. Sections of 4 μm thickness were dewaxed and then stained by Fontana-Masson silver method for melanin.
# Images were collected using an Axio Observer Inverted fluorescence microscope (Zeiss) in bright field mode.
# Melanin was quantified using two open source optical imaging software programs. Photomicrographs (jpeg format) of Fontana-Masson tissue sections were opened in GIMP-GNU Image Manipulation Program. The brown-black color signals corresponding to melanin grains on stained sections were selected, copied and pasted into a new image and saved as a jpeg file; this jpeg file consists solely of black/brown (melanin grains) on a white background. This image was subsequently opened using the ImageJ program. The image was then inverted and the mean intensity was obtained.
# [4] = tested on: Normal Human Epidermal Keratinocytes (NHEKs); experiment: Antioxidant activity: ROS production in keratinocytes stressed with TBP (DCFH-DA probe); format: cell-based; settings: at 200 μM
# Experimental: A 96 wells-plate was coated with a collagen I solution at 50 μg/ml. Normal Human Epidermal Keratinocytes (NHEKs) were seeded at 20′000 cells per well with four replicates. Cells were incubated for 24 hours in complete medium (Epilife, Gibco) supplemented with Human keratinocyte growth supplements (HKGS) factor (Gibco) and 1% antibiotics (Sigma) at 37° C. with 5% CO2. […] The evolution of the fluorescence was followed for 1 hour.
compound,measurement,setting,value
"O=C(O[C@@H]1Cc2c(O)cc(O)cc2O[C@@H]1c1cc(O)c(O)c(O)c1)c1cc(O)c(O)c(O)c1 [EGCG aglycone, epigallocatechin gallate]",L* on uneven skin tone area,[1],slight decrease of L*
same,"global skin color whitening, 15 measurements on hemi face",[1],almost no whitening effect
same,IC50,[2],128 µM
same,Inhibition AGE's,[2]; tested concentration 0.109 mM,31.95%
same,Inhibition AGE's,[2]; tested concentration 0.436 mM,59.84%
same,Inhibition AGE's,[2]; tested concentration 2.180 mM,93.56%
same,Inhibition AGE's,[2]; tested concentration 10.9 mM,97.36%
"OCC1OC(Oc2c(O)cc(C3Oc4cc(O)cc(O)c4CC3O)cc2O)C(O)C(O)C1O (stereo not drawn) [epigallocatechin 4′-O-α-monoglucoside, Epigallocatechin 4′-O-α-monoglucoside]",bioavailability in the skin,[3],much higher bioavailability in the skin than the respective aglycones
"N=C(N)NN [aminoguanidine, reference compound]",IC50,[2],326 µM
O=c1cc(CO)occ1O [Kojic acid],reduction of melanin content compared to untreated,human skin explants,34%
Oc1ccc(C=Cc2cc(O)cc(O)c2)cc1 [Resveratrol],reduction of ROS production,"[4]; 24 h, NHEKs stressed with TBP 5 mM",61%
same,"ROS, Mean (% of untreated)","[4]; TBP column = 100, Untreated = 27.5",39 % of untreated
